Laboratory results from ChEMBL document CHEMBL1201862, “PubChem BioAssay data set” (2004).
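Cultured in 96-well plates, cells were exposed to test compound for 48 hours across five concentrations. Abbreviation: GI50, concentration required for 50% inhibition of growth.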 Calls of active or inactive are those of the source. Rule as the data show it: active = GI50 up to about 1.1 µM and inactive = higher.

Assays:
Assay in all cases: growth of human tumour cells (NCI), 48 h
[1] = test system: OVCAR-3
[2] = test system: NCI-H23
[3] = test system: HCT-15
[4] = test system: HOP-92
[5] = test system: SK-MEL-2
[6] = test system: MDA-MB-231
[7] = test system: Malme-3M
[8] = test system: BT-549
[9] = test system: SR
[10] = test system: MDA-MB-435
[11] = test system: SK-MEL-28
[12] = test system: IGROV-1
[13] = test system: Hs-578T
[14] = test system: MOLT-4
[15] = test system: SK-OV-3
[16] = test system: U-251
[17] = test system: HL-60
[18] = test system: SW-620
[19] = test system: HCC 2998
[20] = test system: RPMI-8226

Structure (SMILES)	GI50 [1]	GI50 [2]	GI50 [3]	GI50 [4]	GI50 [5]	GI50 [6]	GI50 [7]	GI50 [8]	GI50 [9]	GI50 [10]	GI50 [11]	GI50 [12]	GI50 [13]	GI50 [14]	GI50 [15]	GI50 [16]	GI50 [17]	GI50 [18]	GI50 [19]	GI50 [20]
CO[P@@]1(=O)O[C@@H](c2ccccc2)[C@H](O)[C@@]1(O)c1ccccc1	> 100 µM (inactive)	> 100 µM (inactive)	> 100 µM	> 100 µM (inactive)	> 100 µM (inactive)	> 100 µM (inactive)	> 100 µM (inactive)	> 100 µM (inactive)	10.2 µM (inactive)	> 100 µM (inactive)	> 100 µM (inactive)	> 100 µM (inactive)	91.8 µM (inactive)	22.8 µM (inactive)	> 100 µM (inactive)	> 100 µM (inactive)	> 100 µM (inactive)	> 100 µM (inactive)	–	–
CC1(N2CCOCC2)CC2C(=[N+]1[O-])CCC/C2=N/O (stereo not drawn)	> 100 µM (inactive)	> 100 µM (inactive)	> 100 µM	–	> 100 µM (inactive)	> 100 µM (inactive)	> 100 µM (inactive)	> 100 µM (inactive)	> 100 µM (inactive)	> 100 µM (inactive)	> 100 µM (inactive)	> 100 µM (inactive)	> 100 µM (inactive)	> 100 µM (inactive)	> 100 µM (inactive)	> 100 µM (inactive)	–	> 100 µM (inactive)	> 100 µM (inactive)	–
CCOC(=O)/C(C#N)=C(/NNc1ccccc1)c1ccncc1C(=O)O	> 100 µM (inactive)	> 100 µM (inactive)	> 22.7 µM	> 100 µM (inactive)	> 75.2 µM (inactive)	> 100 µM (inactive)	> 100 µM (inactive)	> 100 µM (inactive)	–	5.68 µM (inactive)	> 39.1 µM (inactive)	> 100 µM (inactive)	> 100 µM (inactive)	5.09 µM (inactive)	> 100 µM (inactive)	> 100 µM (inactive)	2.75 µM (inactive)	3.27 µM (inactive)	> 22.4 µM (inactive)	> 56.8 µM (inactive)
CC(=O)Nc1ccc(Nc2cc(=O)n(C)c(=O)[nH]2)cc1	> 100 µM (inactive)	> 100 µM (inactive)	> 100 µM	> 100 µM (inactive)	> 100 µM (inactive)	> 100 µM (inactive)	> 100 µM (inactive)	> 100 µM (inactive)	> 100 µM (inactive)	> 100 µM (inactive)	> 100 µM (inactive)	> 100 µM (inactive)	> 100 µM (inactive)	> 100 µM (inactive)	> 100 µM (inactive)	> 100 µM (inactive)	–	> 100 µM (inactive)	> 100 µM (inactive)	> 100 µM (inactive)
